# Test results: paper PMC11149917, “Translational and Therapeutic Evaluation of RAS-GTP Inhibition by RMC-6236 in RAS-Driven Cancers” (Cancer Discovery, 2024)
# Values joined by “and” are separate entries in the source; they are usually repeats but may differ in a detail not shown here. Identical values can stand only once. Like-named read-outs stand apart in the source and are kept apart here.
# Assay: Mouse blood and tissue PK (LC/MS-MS)
# Assay type: in vivo
# Settings: for AUC(0-t): read-out: Blood AUClast; for half-life: read-out: Blood t1/2 (converted); for concentration at 4 h: read-out: RMC-6236 (nM) Tumor
# Protocol: For single-dose PKPD study, mice were randomized and assigned into groups (n = 3/dose/time point). […] Blood and tissues, including the tumor, brain, colon, ear skin, and muscle, were harvested at indicated time points. […] The whole blood, tumor, brain, colon, and ear skin concentrations of RMC-6236 were determined using liquid chromatography–tandem mass spectrometry (LC/MS-MS) methods. […] After thorough mixing and centrifugation, the supernatant was diluted with water or directly analyzed on a Sciex 5500 or Sciex 6500+ triple quadrupole mass spectrometer equipped with an ACQUITY or Shimadzu UPLC system. […] Bioanalysis on blood and tissue samples from xenograft models was run at Pharmaron and Wuxi AppTec. Concentrations reported as below the quantification limit were treated as zero for PK analysis. PK parameters were calculated by noncompartmental analysis of the concentration–time profiles using Phoenix WinNonLin (version 8.3 Certara). Apparent terminal elimination half-life (t1/2) values were calculated as ln(2)/k, where k represents the terminal elimination rate constant. Area under the concentration–time curve (AUC) values were estimated using a linear trapezoidal method. AUClast values were calculated from the dosing time to the last quantifiable concentration. Maximum concentration (Cmax) was recorded as observed.
# [1] = Balb/c nude, mouse, whole blood, po, 25 mg/kg, LU99-luc IC (25 mg/kg), single dose
# [2] = Balb/c nude, mouse, whole blood, sc, 25 mg/kg, LU99-luc SC (25 mg/kg), single dose
# [3] = Capan-2 (10 mg/kg), single dose
# [4] = Capan-2 (25 mg/kg), single dose
# [5] = LU99-luc IC #2 (25 mg/kg), adjacent normal brain
# [6] = LU99-luc IC #2 (25 mg/kg), intracranial tumor
# [7] = LU99-luc IC (25 mg/kg), intracranial tumor
# [8] = LU99-luc SC (25 mg/kg), subcutaneous xenograft tumor
# [9] = NCI-H358 (25 mg/kg), single dose
# [10] = NCI-H441 #2 (25 mg/kg), QD x 10 days
# [11] = NCI-H441 (3 mg/kg), single dose
# [12] = NCI-H441 (10 mg/kg), single dose
# [13] = NCI-H441 (25 mg/kg), single dose
compound,measurement,setting,value
CCn1c(-c2cc(N3CCN(C)CC3)cnc2[C@H](C)OC)c2c3cc(ccc31)-c1csc(n1)C[C@H](NC(=O)[C@H]1C[C@@H]1C)C(=O)N1CCC[C@H](N1)C(=O)OCC(C)(C)C2 [RMC-6236],AUC(0-t),[1],16.7 µg·h/mL
same,half-life,[1],3.81 h
same,Cmax,[2],1.65 µg/mL
same,AUC(0-t),[2],18.6 µg·h/mL
same,half-life,[2],3.13 h
same,Tumor AUClast,"Capan-2 (3 mg/kg), single dose",5.138 µg·h/mL
same,Tumor Cmax,"Capan-2 (3 mg/kg), single dose",0.218 µg/mL
same,Tumor AUClast,[3],23.425 µg·h/mL
same,Tumor Cmax,[3],0.906 µg/mL
same,Tumor AUClast,[4],66.696 µg·h/mL
same,Tumor Cmax,[4],3 µg/mL
same,concentration at 4 h,"Capan-2, study Capan-2 #3_PHA 2020, 0.3 mg/kg, 2h",21.6 nM and 12.8 nM
same,concentration at 4 h,"Capan-2, study Capan-2 #3_PHA 2020, 0.3 mg/kg, 8h",15.8 nM and 20.9 nM
same,concentration at 4 h,"Capan-2, study Capan-2 #3_PHA 2020, 0.3 mg/kg, 24h",7.5 nM and 9 nM
same,RMC-6236 (nM) Tumor,"Capan-2, study Capan-2 #3_PHA 2020, 0.3 mg/kg, 48h",BQL
same,concentration at 4 h,"Capan-2, study Capan-2 #3_PHA 2020, 3 mg/kg, 2h",206 nM and 213 nM
same,concentration at 4 h,"Capan-2, study Capan-2 #3_PHA 2020, 3 mg/kg, 8h",232 nM and 155 nM
same,concentration at 4 h,"Capan-2, study Capan-2 #3_PHA 2020, 3 mg/kg, 24h",93 nM and 106 nM
same,concentration at 4 h,"Capan-2, study Capan-2 #3_PHA 2020, 3 mg/kg, 48h",29 nM and 32 nM
same,concentration at 4 h,"Capan-2, study Capan-2 #3_PHA 2020, 10 mg/kg, 2h",735 nM and 868 nM
same,concentration at 4 h,"Capan-2, study Capan-2 #3_PHA 2020, 10 mg/kg, 8h",784 nM and 1189 nM
same,concentration at 4 h,"Capan-2, study Capan-2 #3_PHA 2020, 10 mg/kg, 24h",388 nM and 425 nM
same,concentration at 4 h,"Capan-2, study Capan-2 #3_PHA 2020, 10 mg/kg, 48h",127 nM and 106 nM
same,concentration at 4 h,"Capan-2, study Capan-2 #3_PHA 2020, 25 mg/kg, 2h",1563 nM and 2949 nM
same,concentration at 4 h,"Capan-2, study Capan-2 #3_PHA 2020, 25 mg/kg, 8h",2249 nM and 3216 nM
same,concentration at 4 h,"Capan-2, study Capan-2 #3_PHA 2020, 25 mg/kg, 24h",1455 nM and 1672 nM
same,concentration at 4 h,"Capan-2, study Capan-2 #3_PHA 2020, 40 mg/kg, 2h",6510 nM and 4764 nM
same,concentration at 4 h,"Capan-2, study Capan-2 #3_PHA 2020, 40 mg/kg, 8h",4542 nM and 4547 nM
same,concentration at 4 h,"Capan-2, study Capan-2 #3_PHA 2020, 40 mg/kg, 24h",2254 nM
same,concentration at 4 h,"Capan-2, study Capan-2 #3_PHA 2023, 3 mg/kg, 2h",210.835 nM and 145.489 nM
same,concentration at 4 h,"Capan-2, study Capan-2 #3_PHA 2023, 3 mg/kg, 4h",272.483 nM and 245.358 nM
same,concentration at 4 h,"Capan-2, study Capan-2 #3_PHA 2023, 3 mg/kg, 8h",266.318 nM and 212.068 nM
same,concentration at 4 h,"Capan-2, study Capan-2 #3_PHA 2023, 3 mg/kg, 24h",131.926 nM and 103.198 nM
same,concentration at 4 h,"Capan-2, study Capan-2 #3_PHA 2023, 3 mg/kg, 48h",42.167 nM and 42.4136 nM
same,concentration at 4 h,"Capan-2, study Capan-2 #3_PHA 2023, 10 mg/kg, 2h",596.75 nM and 1028.28 nM
same,concentration at 4 h,"Capan-2, study Capan-2 #3_PHA 2023, 10 mg/kg, 4h",1166.37 nM and 954.307 nM
same,concentration at 4 h,"Capan-2, study Capan-2 #3_PHA 2023, 10 mg/kg, 8h",1105.96 nM and 773.062 nM
same,concentration at 4 h,"Capan-2, study Capan-2 #3_PHA 2023, 10 mg/kg, 24h",401.943 nM and 517.841 nM
same,concentration at 4 h,"Capan-2, study Capan-2 #3_PHA 2023, 10 mg/kg, 48h",125.761 nM and 157.818 nM
same,concentration at 4 h,"Capan-2, study Capan-2 #3_PHA 2023, 25 mg/kg, 2h",1750.8 nM and 1824.77 nM
same,concentration at 4 h,"Capan-2, study Capan-2 #3_PHA 2023, 25 mg/kg, 4h",5030.45 nM and 3020.74 nM
same,concentration at 4 h,"Capan-2, study Capan-2 #3_PHA 2023, 25 mg/kg, 8h",2379.6 nM and 2700.17 nM
same,concentration at 4 h,"Capan-2, study Capan-2 #3_PHA 2023, 25 mg/kg, 24h",1997.39 nM and 1442.56 nM
same,concentration at 4 h,"Capan-2, study Capan-2 #3_PHA 2023, 50 mg/kg, 2h",5178.41 nM and 4956.48 nM
same,concentration at 4 h,"Capan-2, study Capan-2 #3_PHA 2023, 50 mg/kg, 4h",6411.36 nM and 6731.93 nM
same,concentration at 4 h,"Capan-2, study Capan-2 #3_PHA 2023, 50 mg/kg, 8h",6251.08 nM and 3945.45 nM
same,concentration at 4 h,"Capan-2, study Capan-2 #3_PHA 2023, 50 mg/kg, 24h",2996.08 nM and 1775.45 nM
same,concentration at 4 h,"Capan-2, study Capan-2 #3_PHA 2023, 100 mg/kg, 2h",9025.23 nM and 8877.27 nM
same,concentration at 4 h,"Capan-2, study Capan-2 #3_PHA 2023, 100 mg/kg, 4h",16521.6 nM and 11417.2 nM
same,concentration at 4 h,"Capan-2, study Capan-2 #3_PHA 2023, 100 mg/kg, 8h",14795.5 nM and 9185.51 nM
same,concentration at 4 h,"Capan-2, study Capan-2 #3_PHA 2023, 100 mg/kg, 24h",4216.7 nM and 3328.98 nM
same,concentration at 4 h,"Capan-2, study Capan-2 #3_PHA 2023, 100 mg/kg, 48h",1124.45 nM and 1331.59 nM
same,concentration at 4 h,"HPAC #3, 50 mg/kg, 24h, individual animals, 50 mg/kg",3354 nM
same,concentration at 4 h,"HPAC #3, 50 mg/kg, 48h, individual animals, 50 mg/kg",1332 nM and 1603 nM
same,concentration at 4 h,"HPAC #4, 3 mg/kg, 4h, individual animals, 3 mg/kg",108 nM and 297 nM and 238 nM
same,concentration at 4 h,"HPAC #4, 3 mg/kg, 8h, individual animals, 3 mg/kg",335 nM and 387 nM
same,concentration at 4 h,"HPAC #4, 3 mg/kg, 24h, individual animals, 3 mg/kg",207 nM and 164 nM
same,RMC-6236 (nM) Tumor,"HPAC #4, 3 mg/kg, 48h, individual animals",BQL
same,concentration at 4 h,"HPAC #4, 3 mg/kg, 48h, individual animals, 3 mg/kg",29.3 nM
same,concentration at 4 h,"HPAC #4, 10 mg/kg, 4h, individual animals, 10 mg/kg",957 nM and 831 nM
same,concentration at 4 h,"HPAC #4, 10 mg/kg, 8h, individual animals, 10 mg/kg",1566 nM and 1418 nM
same,concentration at 4 h,"HPAC #4, 10 mg/kg, 24h, individual animals, 10 mg/kg",386 nM and 374 nM
same,concentration at 4 h,"HPAC #4, 10 mg/kg, 48h, individual animals, 10 mg/kg",210 nM and 212 nM
same,concentration at 4 h,"HPAC #4, 25 mg/kg, 4h, individual animals, 25 mg/kg",2897 nM and 4130 nM
same,RMC-6236 (nM) Tumor,"HPAC #11, 0.3 mg/kg, 4h, individual animals",BQL
same,RMC-6236 (nM) Tumor,"HPAC #11, 0.3 mg/kg, 8h, individual animals",BQL
same,RMC-6236 (nM) Tumor,"HPAC #11, 0.3 mg/kg, 24h, individual animals",BQL
same,RMC-6236 (nM) Tumor,"HPAC #11, 0.3 mg/kg, 48h, individual animals",BQL
same,RMC-6236 (nM) Tumor,"HPAC #11, 1 mg/kg, 24h, individual animals",BQL
same,RMC-6236 (nM) Tumor,"HPAC #11, 1 mg/kg, 48h, individual animals",BQL
same,Tumor AUClast,"HPAC (25 mg/kg), single dose",79.219 µg·h/mL
same,Tumor Cmax,"HPAC (25 mg/kg), single dose",3.007 µg/mL
same,Tumor AUClast,"KP-4 (25 mg/kg), single dose",79.463 µg·h/mL
same,Tumor Cmax,"KP-4 (25 mg/kg), single dose",3.582 µg/mL
same,Brain AUClast,[5],0.396 µg·h/mL
same,Brain Cmax,[5],0.0632 µg/mL
same,Tumor AUClast,[6],2.537 µg·h/mL
same,Tumor Cmax,[6],0.139 µg/mL
same,Tumor AUClast,[7],2.004 µg·h/mL
same,Tumor Cmax,[7],0.142 µg/mL
same,Tumor AUClast (h × ng/mL),[8],75128 #2 h × ng/mL
same,Tumor Cmax (ng/mL),[8],2367 #2 ng/mL
same,Tumor AUClast,[9],51.307 µg·h/mL
same,Tumor Cmax,[9],3.083 µg/mL
same,Tumor AUClast,[10],32.762 µg·h/mL
same,Tumor Cmax,[10],1.527 µg/mL
same,Tumor AUClast,[11],6.321 µg·h/mL
same,Tumor Cmax,[11],0.253 µg/mL
same,Tumor AUClast,[12],17.526 µg·h/mL
same,Tumor Cmax,[12],0.821 µg/mL
same,Tumor AUClast,[13],55.019 µg·h/mL
same,Tumor Cmax,[13],2.083 µg/mL
same,RMC-6236 (nM) Tumor,"NCI-H441 xenograft tumor, study NCI-H441#10, 0.3 mg/kg, 48h",BQL
same,RMC-6236 (nM) Tumor,"NCI-H441 xenograft tumor, study NCI-H441#10, 1 mg/kg, 48h",BQL
same,RMC-6236 (nM) Tumor,"NCI-H441 xenograft tumor, study NCI-H441#13, 0.3 mg/kg, 24h",BQL
